Test results published in ChEMBL document CHEMBL3400017, “3-Anhydro-6-hydroxy-ophiobolin A, a fungal sesterterpene from Bipolaris oryzae induced autophagy and promoted the degradation of α-synuclein in PC12 cells” (Bioorg Med Chem Lett, 2015).
Calls of active or inactive are those of the source.

What was measured:
HeLa [1] = assay: Induction of LC3 autophagy in human HeLa cells stably expressing GFP-LC3 assessed as increase of the LC3-II level at 10 uM after 6 hrs by immunoblotting; format: functional, cell-based
U2OS = assay: Induction of LC3 autophagy in human U2OS cells stably expressing GFP-LC3 assessed as increasing number of punctuate GFP-LC3 dots at 10 uM after 6 hrs by confocal microscopy; format: functional, cell-based
SH-SY5Y = assay: Induction of LC3 autophagy in human SH-SY5Y cells stably expressing GFP-LC3 assessed as increasing number of punctuate GFP-LC3 dots at 10 uM after 6 hrs by confocal microscopy; format: functional, cell-based
HeLa [2] = assay: Induction of LC3 autophagy in human HeLa cells stably expressing GFP-LC3 assessed as increasing number of punctuate GFP-LC3 dots after 6 to 24 hrs by confocal microscopy; format: functional, cell-based
HeLa [3] = assay: Induction of LC3 autophagy in human HeLa cells stably expressing GFP-LC3 assessed as increasing number of punctuate GFP-LC3 dots at 5 to 10 uM by confocal microscopy; format: functional, cell-based; conditions: TDE = time-dependent effect
HeLa [4] = assay: Induction of LC3 autophagy in human HeLa cells stably expressing GFP-LC3 assessed as increase of the LC3-II level after 12 to 24 hrs by Western blotting analysis; format: functional, cell-based
HeLa [5] = assay: Induction of LC3 autophagy in human HeLa cells stably expressing GFP-LC3 assessed as increase of the LC3-II level at 1 to 20 uM by Western blotting analysis; format: functional, cell-based; conditions: TDE = time-dependent effect
HeLa [6] = assay: Induction of LC3 autophagy in human HeLa cells stably expressing GFP-LC3 assessed as increasing number of punctuate GFP-LC3 dots at 10 uM after 6 hrs by confocal microscopy in presence of bafilomycin A1; format: functional, cell-based
HeLa [7] = assay: Induction of LC3 autophagy in human HeLa cells stably expressing GFP-LC3 assessed as increase of the LC3-II level at 10 uM after 6 hrs by Western blotting analysis in presence of bafilomycin A1; format: functional, cell-based
HeLa [8] = assay: Induction of LC3 autophagy in ATG5 KO human HeLa cells stably expressing GFP-LC3 assessed as increase of the LC3-II level at 10 uM after 6 hrs by Western blotting analysis; format: functional, cell-based
HeLa [9] = assay: Induction of LC3 autophagy in ATG5 KO human HeLa cells stably expressing GFP-LC3 assessed as increasing number of punctuate GFP-LC3 dots at 10 uM after 6 hrs by confocal microscopy; format: functional, cell-based
HeLa [10] = assay: Induction of LC3 autophagy in Beclin1 KO human HeLa cells stably expressing GFP-LC3 and transfected of Beclin2 siRNA assessed as increase of the LC3-II level at 10 uM after 6 hrs by Western blotting analysis; format: functional, cell-based
HeLa [11] = assay: Induction of LC3 autophagy in Beclin1 KO human HeLa cells stably expressing GFP-LC3 assessed as increase of the LC3-II level at 10 uM after 6 hrs by Western blotting analysis; format: functional, cell-based
HeLa [12] = assay: Induction of mitochondrial dysfunction in human HeLa cells at 10 uM after 6 hrs using anti-Tim23 antibody by confocal microscopy; format: functional, cell-based
HeLa [13] = assay: Induction of mitochondrial dysfunction in human HeLa cells at 10 uM after 6 to 24 hrs using anti-Tom20 and anti-Tim23 antibodies by Western blotting; format: functional, cell-based
HeLa [14] = assay: Induction of mitochondrial dysfunction in human HeLa cells assessed as reduction in mitochondrial mass at 10 uM after 6 to 24 hrs using anti-Tom20 and anti-Tim23 antibodies by Western blotting; format: functional, cell-based
HeLa [15] = assay: Induction of mitochondrial dysfunction in human HeLa cells stably expressing GFP-LC3 at 10 uM after 6 to 24 hrs using anti-Tim23 antibodies by Western blotting; format: functional, cell-based
HeLa [16] = assay: Induction of mitochondrial dysfunction in human HeLa cells stably expressing GFP-LC3 assessed as loss of mitochondrial membrane potential at 10 uM after 6 to 24 hrs using TMRE staining by confocal microscopy; format: functional, cell-based
HeLa [17] = assay: Induction of mitochondrial dysfunction in human HeLa cells stably expressing GFP-LC3 assessed as loss of mitochondrial membrane potential at 10 uM after 6 to 24 hrs using TMRE staining by flow cytometry; format: functional, cell-based
HeLa [18] = assay: Induction of cytosolic ROS production in human HeLa cells at 5 to 10 uM after 24 hrs using DCF by flow cytometry; format: functional, cell-based
HeLa [19] = assay: Induction of mitochondrial ROS production in human HeLa cells at 5 to 10 uM after 24 hrs using Mito-SOX by flow cytometry; format: functional, cell-based
HeLa [20] = assay: Induction of ROS production in human HeLa cells stably expressing GFP-LC3 assessed as increasing number of punctuate GFP-LC3 dots at 5 to 10 uM after 6 hrs by confocal microscopy in presence of ROS scavenger NAC; format: functional, cell-based
HeLa [21] = assay: Induction of ROS production in human HeLa cells stably expressing GFP-LC3 assessed as increase of the LC3-II level at 5 to 10 uM after 6 hrs by Western blot analysis in presence of ROS scavenger NAC; format: functional, cell-based
[22] = biological target: T1, c-Jun N-terminal kinase, JNK (Homo sapiens) (UniProt P45983+P53779+P45984); assay: Induction of JNK phosphorylation in human HeLa cells stably expressing GFP-LC3 assessed as punctuate GFP-LC3 formation at 5 uM after 6 hrs by confocal microscopy; format: cell-based
[23] = biological target: T1, c-Jun N-terminal kinase, JNK (Homo sapiens); assay: Induction of JNK phosphorylation in human HeLa cells stably expressing GFP-LC3 assessed as increase of the LC3-II level at 5 uM after 6 hrs by Western blot analysis; format: cell-based
PC-12 [24] = assay: Induction of autophagic degradation of alpha-synuclein in rat PC12 cells cotransfected with GFP-LC3 assessed as co-localiztion of alpha-synuclein with GFP-LC3 puncta by confocal microscopy; format: functional, cell-based
PC-12 [25] = assay: Induction of autophagic degradation of alpha-synuclein in rat PC12 cells cotransfected with GFP-LC3 and alpha-synuclein-myc assessed as reduction in protein level at 10 uM after 12 hrs by Western blot analysis; format: functional, cell-based
PC-12 [26] = assay: Induction of autophagic degradation of alpha-synuclein in rat PC12 cells cotransfected with GFP-LC3 and alpha-synuclein-myc at 10 uM after 12 hrs by Western blot analysis in presence of bafilomycin A1; format: functional, cell-based
PC-12 [27] = assay: Induction of autophagic degradation of alpha-synuclein in […] KO rat PC12 cells cotransfected with GFP-LC3 and alpha-synuclein-myc at 10 uM after 12 hrs by Western blot analysis; format: functional, cell-based
[28] = biological target: T1, c-Jun N-terminal kinase, JNK (Homo sapiens); assay: Induction of JNK phosphorylation in human HeLa cells stably expressing GFP-LC3 assessed as punctuate GFP-LC3 formation at 5 uM after 6 hrs by confocal microscopy in presence of SP600125; format: cell-based
[29] = biological target: T1, c-Jun N-terminal kinase, JNK (Homo sapiens); assay: Induction of JNK phosphorylation in human HeLa cells stably expressing GFP-LC3 assessed as increase of the LC3-II level at 5 uM after 6 hrs by Western blot analysis in presence of SP600125; format: cell-based
HeLa [30] = assay: Induction of autophagy in human HeLa cells stably expressing GFP-LC3 assessed as increasing number of punctuate GFP-LC3 dots by high-throughput screening; format: functional, cell-based
HeLa [31] = assay: Induction of LC3 autophagy in human HeLa cells stably expressing GFP-LC3 assessed as increasing number of punctuate GFP-LC3 dots at 10 uM after 6 hrs by confocal microscopy; format: functional, cell-based

Measured: Activity

CC(C)=C[C@H]1C[C@H](C)[C@]2(CC[C@]3(C)C[C@@H]4C(C)=CC(=O)[C@]4(O)/C(C=O)=C\C[C@H]32)O1
inactive: HeLa [8] | HeLa [9] | HeLa [10] | HeLa [13] | HeLa [14] | HeLa [15] | HeLa [20] | HeLa [21] | PC-12 [26] | PC-12 [27] | [28] | [29]
active: HeLa [1] | U2OS | SH-SY5Y | HeLa [2] Dose-dependent effect | HeLa [3] tde | HeLa [4] Dose-dependent effect | HeLa [5] tde | HeLa [6] | HeLa [7] | HeLa [11] | HeLa [12] | HeLa [16] | HeLa [17] | HeLa [18] | HeLa [19] | [22] | [23] | PC-12 [24] | PC-12 [25] | HeLa [30] | HeLa [31]

CC(C)=C[C@H]1C[C@H](C)[C@]2(CC[C@]3(C)C[C@@H]4C(C)=CC(=O)[C@@H]4/C(C=O)=C\C[C@H]32)O1
inactive: HeLa [31]
